In PMC5653977 (EMBO Molecular Medicine, 2017):
Where a name gives a salt, the structure may show the parent alone.

system: NRG1-ERBB4 signaling; test: Nrg1-ERBB4-PIK3R1 split TEV co-culture compound screen of the NIH Clinical Collection; format: cell-based, human; conditions: not given

SMILES | Z-SCORE
CC(C)c1cccc(C(C)C)c1O [Propofol, reference compound] | -0.98

same assay, conditions: NIH Clinical Collection NCC-003 raw data; compounds ranked by Z-score; 'flagged' given instead of a Z-score

SMILES | Z-SCORE
OCCOCCN1CCN(C2=Nc3ccccc3Sc3ccccc32)CC1 [QUETIAPINE HEMIFUMARATE] | -1.26
C[C@]12CCC(=O)C=C1CC[C@@H]1[C@@H]2CC[C@@]2(C)[C@H]1CC[C@]2(O)C(=O)CO [ReichsteinÂ’s substanceÂ S] | -1.82
CC(C)CC(N(C)C)C1(c2ccc(Cl)cc2)CCC1.Cl (stereo not drawn) [SIBUTRAMINE HCl] | -1.35
O=C(O)c1cc(/N=N/c2ccc(S(=O)(=O)Nc3ccccn3)cc2)ccc1O [SULFASALAZINE] | -2.84

same assay, conditions: compound screen of the NIH Clinical Collection, sheet raw data NCC-003; compounds ranked by Z-score

SMILES | Z-SCORE
CNC(=O)Oc1ccc2c(c1)[C@]1(C)CCN(C)[C@@H]1N2C [Physostigmine] | 0.16
CC(N/C(=N\C#N)Nc1ccncc1)C(C)(C)C (stereo not drawn) [Pinacidil monohydrate] | 0.85
c1cnc(N2CCN(Cc3ccc4c(c3)OCO4)CC2)nc1 [Piribedil] | 1.22
CN1C(C(=O)Nc2ccccn2)=C(O)c2ccccc2S1(=O)=O [Piroxicam] | 0.27
CN1CCC(=C2c3ccccc3CCc3sccc32)CC1 [Pizotyline] | -0.22
CCCN[C@H]1CCc2nc(N)sc2C1 [Pramipexole] | -0.29
CCCCC[C@H](O)/C=C/[C@H]1[C@H](O)CC(=O)[C@@H]1CCCCCCC(=O)O [Prostaglandin E1] | 0.18
CN1CCc2cc(Cl)c(O)cc2[C@@H](c2ccccc2)C1.Cl [R(+)-SCH-23390 hydrochloride] | 0.87
COCCCOc1ccnc(C[S+]([O-])c2nc3ccccc3[nH]2)c1C (stereo not drawn) [RABEPRAZOLE] | -0.02
Cc1nc2ccc(CN(C)c3ccc(C(=O)N[C@@H](CCC(=O)O)C(=O)O)s3)cc2c(=O)[nH]1 [RALTITREXED] | -0.52
CCOc1cc(CC(=O)N[C@@H](CC(C)C)c2ccccc2N2CCCCC2)ccc1C(=O)O [REPAGLINIDE] | 1.38
CO[C@H]1/C=C/O[C@@]2(C)Oc3c(C)c(O)c4c(O)c(c(/C=N/N5CCN(C6CCCC6)CC5)c(O)c4c3C2=O)NC(=O)/C(C)=C\C=C\[C@H](C)[C@H](O)[C@@H](C)[C@@H](O)[C@@H](C)[C@H](OC(C)=O)[C@@H]1C [RIFAPENTINE, reference compound] | 0.75
CO[C@H]1/C=C/O[C@@]2(C)Oc3c(C)c(O)c4c(O)c(c5c(nc6cc(C)ccn65)c4c3C2=O)NC(=O)/C(C)=C\C=C\[C@H](C)[C@H](O)[C@@H](C)[C@@H](O)[C@@H](C)[C@H](OC(C)=O)[C@@H]1C [RIFAXIMIN] | 0.05
Cc1nc2n(c(=O)c1CCN1CCC(c3noc4cc(F)ccc34)CC1)CCCC2 [RISPERIDONE] | 0
CC(C)c1nc(CN(C)C(=O)N[C@H](C(=O)N[C@@H](Cc2ccccc2)C[C@H](O)[C@H](Cc2ccccc2)NC(=O)OCc2cncs2)C(C)C)cs1 [RITONAVIR] | -0.37
CN(C)CCc1c[nH]c2ccc(Cn3cncn3)cc12 [RIZATRIPTAN BENZOATE] | -0.76
CS(=O)(=O)c1ccc(C2=C(c3ccccc3)C(=O)OC2)cc1 [ROFECOXIB] | 0.81
COc1ccc(C2CNC(=O)C2)cc1OC1CCCC1 (stereo not drawn) [ROLIPRAM] | 1.06
CN(C)[C@@H]1C(O)=C(C(=O)NCN2CCCC2)C(=O)[C@@]2(O)C(O)=C3C(=O)c4c(O)cccc4[C@@](C)(O)[C@H]3C[C@@H]12 [ROLITETRACYCLINE] | -0.5
CCCN1CCCC[C@H]1C(=O)Nc1c(C)cccc1C [ROPIVACAINE HCl] | -0.05
CN(CCOc1ccc(CC2SC(=O)NC2=O)cc1)c1ccccn1.Cl (stereo not drawn) [ROSIGLITAZONE HCl] | 0.11

SMILES | Z-SCORE
CN(CCOc1ccc(CC2SC(=O)NC2=O)cc1)c1ccccn1 (stereo not drawn) [ROSIGLITAZONE MALEATE] | -0.83
CC(=O)OCC(=O)NCCCOc1cccc(CN2CCCCC2)c1 [ROXATIDINE ACETATE HCl] | -0.59
COc1ccc2[nH]cc(C3=CCNCC3)c2c1 [RU 24969] | 0.79
CN1CCN(c2c(F)cc3c(=O)c(C(=O)O)cn4c3c2SCC4)CC1.Cl [RUFLOXACIN HCl] | 1.1
C[C@@H]1O[C@@H](OC[C@H]2O[C@@H](Oc3c(-c4ccc(O)c(O)c4)oc4cc(O)cc(O)c4c3=O)[C@H](O)[C@@H](O)[C@@H]2O)[C@H](O)[C@H](O)[C@H]1O [RUTIN] | 0.13
CCN1CCC[C@H]1CNC(=O)c1c(O)c(Cl)cc(Cl)c1OC [Raclopride] | -0.81
COc1ccccc1OCC(O)CN1CCN(CC(=O)Nc2c(C)cccc2C)CC1 (stereo not drawn) [Ranolazine dihydrochloride] | 0.21
Oc1ccc(/C=C/c2cc(O)cc(O)c2)cc1 [Resveratrol] | 2.61
CO[C@H]1/C=C/O[C@@]2(C)Oc3c(C)c(O)c4c(c3C2=O)C2=NC3(CCN(CC(C)C)CC3)NC2=C(NC(=O)/C(C)=C\C=C\[C@H](C)[C@H](O)[C@@H](C)[C@@H](O)[C@@H](C)[C@H](OC(C)=O)[C@@H]1C)C4=O [Rifabutin, reference compound] | 0.07
Nc1nc2ccc(OC(F)(F)F)cc2s1 [Riluzole] | -0.53
C[C@@H]1CN(CCCn2c3ccccc3c3ccccc32)C[C@H](C)N1 [Rimcazole] | 0.6
CC(C)(C)NCC(O)c1ccc(O)c(CO)c1.CC(C)(C)NCC(O)c1ccc(O)c(CO)c1.O=S(=O)(O)O (stereo not drawn) [SALBUTAMOL SULFATE] | -0.61
CC(C)(C)NC(=O)[C@@H]1C[C@@H]2CCCC[C@@H]2CN1C[C@@H](O)[C@H](Cc1ccccc1)NC(=O)[C@H](CC(N)=O)NC(=O)c1ccc2ccccc2n1 [SAQUINAVIR MESYLATE] | -0.84
CN1CC[C@]2(c3cccc(O)c3)Cc3nc4ccccc4cc3C[C@H]2C1 [SB 205607] | 0.19
C=C(C)CN1CC[C@]23c4c5ccc(O)c4O[C@H]2c2[nH]c4ccccc4c2C[C@@]3(O)C1C5.Cl.O [SDM25N] | -0.11
COc1cc(C[C@@H](CO)[C@H](CO)Cc2ccc(O)c(OC)c2)ccc1O [SECOISOLARICIRESINOL] | -0.17
Cl.NC1CCN(c2cccc(Cl)n2)CC1 [SR 57,227A] | -0.24
Cc1cn([C@H]2C=C[C@@H](CO)O2)c(=O)[nH]c1=O [STAVUDINE, reference compound] | 0.08
CNS(=O)(=O)Cc1ccc2[nH]cc(CCN(C)C)c2c1 [SUMATRIPTAN SUCCINATE] | -0.07
CNCC(O)c1ccc(O)cc1 (stereo not drawn) [SYNEPHRINE] | -0.41
OCc1cc(C(O)CNCCCCCCOCCCCc2ccccc2)ccc1O (stereo not drawn) [Salmeterol] | 0.6

same assay, conditions: compounds at 10 μM, 24 h; PC12 split TEV assay cells co-cultured with Nrg1-expressing PC12 cells; analysed with cellHTS2

SMILES | Z-SCORE
COc1cc([C@@H]2c3cc4c(cc3[C@H](O)[C@H]3COC(=O)[C@H]23)OCO4)cc(OC)c1OC [Podofilox, reference compound] | flagged
C[C@]12C=CC(=O)C=C1CC[C@@H]1[C@@H]2[C@@H](O)C[C@@]2(C)[C@H]1CC[C@]2(O)C(=O)CO [Prednisolone, reference compound] | -1.95
C[C@]12C=CC(=O)C=C1CC[C@@H]1[C@@H]2C(=O)C[C@@]2(C)[C@H]1CC[C@]2(O)C(=O)CO [Prednisone, reference compound] | -0.15
COc1cc(NC(C)CCCN)c2ncccc2c1 (stereo not drawn) [Primaquine Diphosphate, reference compound] | -0.7
CCC1(c2ccccc2)C(=O)NCNC1=O [Primidone, reference compound] | 1.6
c1ccc(CC2=NCCN2)cc1 [Priscoline, reference compound] | 1.86
COc1ccc(OC)c(C(O)CNC(=O)CN)c1 (stereo not drawn) [Pro-Amatine, reference compound] | 0.01
CC(C)[N+](C)(CCOC(=O)C1c2ccccc2Oc2ccccc21)C(C)C [Pro-Banthine, reference compound] | -0.77
CCCN(CCC)S(=O)(=O)c1ccc(C(=O)O)cc1 [Probenecid, reference compound] | 1.6
CCN(CC)CCNC(=O)c1ccc(N)cc1 [Pronestyl, reference compound] | 0.04
CCCOc1ccc(C(=O)OCCN(CC)CC)cc1N [Proparacaine hydrochloride, reference compound] | 0.5
CCCc1cc(=O)[nH]c(=S)[nH]1 [Propylthiouracil, reference compound] | 0.58
CNCCC(Oc1ccc(C(F)(F)F)cc1)c1ccccc1 (stereo not drawn) [Prozac, reference compound] | -1.46
NC(=O)c1cnccn1 [Pyrazinamide, reference compound] | 1.05
CCc1nc(N)nc(N)c1-c1ccc(Cl)cc1 [Pyrimethamine, reference compound] | 0.29
CCOC(=O)[C@H](CCc1ccccc1)N[C@@H](C)C(=O)N1Cc2ccccc2C[C@H]1C(=O)O [Quinapril hydrochloride, reference compound] | -1.66
CO[C@H]1/C=C/O[C@@]2(C)Oc3c(C)c(O)c4c(O)c(c(/C=N/N5CCN(C)CC5)c(O)c4c3C2=O)NC(=O)/C(C)=C\C=C\[C@H](C)[C@H](O)[C@@H](C)[C@@H](O)[C@@H](C)[C@H](OC(C)=O)[C@@H]1C [RIFAMPICIN, reference compound] | -0.22
CO[C@H]1/C=C/O[C@@]2(C)Oc3c(C)c(O)c4c(O)c(c(/C=N/N5CCN(C6CCCC6)CC5)c(O)c4c3C2=O)NC(=O)/C(C)=C\C=C\[C@H](C)[C@H](O)[C@@H](C)[C@@H](O)[C@@H](C)[C@H](OC(C)=O)[C@@H]1C [RIFAPENTINE, reference compound] | 0.91
CNC(=C[N+](=O)[O-])NCCSCc1ccc(CN(C)C)o1 [Ranitidine hydrochloride, reference compound] | -0.51
CC1=C(/C=C/C(C)=C/C=C/C(C)=C/C(=O)O)C(C)(C)CCC1 [Retinoic acid, reference compound] | 1.72
NC(=O)c1ncn([C@@H]2O[C@H](CO)[C@@H](O)[C@H]2O)n1 [Ribavirin, reference compound] | 0.53
CO[C@H]1/C=C/O[C@@]2(C)Oc3c(C)c(O)c4c(c3C2=O)C2=NC3(CCN(CC(C)C)CC3)NC2=C(NC(=O)/C(C)=C\C=C\[C@H](C)[C@H](O)[C@@H](C)[C@@H](O)[C@@H](C)[C@H](OC(C)=O)[C@@H]1C)C4=O [Rifabutin, reference compound] | -1.04
CCCNCC(O)COc1ccccc1C(=O)CCc1ccccc1 (stereo not drawn) [Rythmol, reference compound] | 0.2
CN[C@@H]1[C@H](O)[C@H](NC)[C@H]2O[C@@]3(O)C(=O)C[C@@H](C)O[C@H]3O[C@@H]2[C@H]1O.Cl.Cl.O.O.O.O.O [SPECTINOMYCIN DIHYDROCHLORIDE PENTAHYDRATE, reference compound] | 0.04
Cc1cn([C@H]2C=C[C@@H](CO)O2)c(=O)[nH]c1=O [STAVUDINE, reference compound] | 0.2
